Experimental data from ChEMBL document CHEMBL1201862, “PubChem BioAssay data set” (2004).
Calls of active or inactive are those of the source.

Key:
[1] = biological target: T1, Tyrosyl-DNA phosphodiesterase 2 (Homo sapiens, UniProt O95551); test: potency against TDP2 phosphodiesterase activity – biochemical, epi absorbance, IC50, dose response (AID 743297)
T1 sequence (O95551 whole entry): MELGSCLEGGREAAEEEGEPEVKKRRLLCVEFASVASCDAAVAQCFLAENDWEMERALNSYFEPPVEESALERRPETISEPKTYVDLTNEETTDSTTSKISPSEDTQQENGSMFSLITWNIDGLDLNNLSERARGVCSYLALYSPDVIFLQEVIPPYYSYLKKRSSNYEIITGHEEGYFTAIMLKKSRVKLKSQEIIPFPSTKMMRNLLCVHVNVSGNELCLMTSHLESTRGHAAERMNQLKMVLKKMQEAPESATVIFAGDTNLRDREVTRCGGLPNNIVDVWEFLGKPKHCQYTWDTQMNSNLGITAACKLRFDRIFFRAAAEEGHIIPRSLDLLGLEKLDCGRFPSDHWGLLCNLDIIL

[2] = biological target: T2, Histone-lysine N-methyltransferase NSD2 (Homo sapiens, UniProt O96028); format: biochemical
T2 sequence (O96028 whole entry): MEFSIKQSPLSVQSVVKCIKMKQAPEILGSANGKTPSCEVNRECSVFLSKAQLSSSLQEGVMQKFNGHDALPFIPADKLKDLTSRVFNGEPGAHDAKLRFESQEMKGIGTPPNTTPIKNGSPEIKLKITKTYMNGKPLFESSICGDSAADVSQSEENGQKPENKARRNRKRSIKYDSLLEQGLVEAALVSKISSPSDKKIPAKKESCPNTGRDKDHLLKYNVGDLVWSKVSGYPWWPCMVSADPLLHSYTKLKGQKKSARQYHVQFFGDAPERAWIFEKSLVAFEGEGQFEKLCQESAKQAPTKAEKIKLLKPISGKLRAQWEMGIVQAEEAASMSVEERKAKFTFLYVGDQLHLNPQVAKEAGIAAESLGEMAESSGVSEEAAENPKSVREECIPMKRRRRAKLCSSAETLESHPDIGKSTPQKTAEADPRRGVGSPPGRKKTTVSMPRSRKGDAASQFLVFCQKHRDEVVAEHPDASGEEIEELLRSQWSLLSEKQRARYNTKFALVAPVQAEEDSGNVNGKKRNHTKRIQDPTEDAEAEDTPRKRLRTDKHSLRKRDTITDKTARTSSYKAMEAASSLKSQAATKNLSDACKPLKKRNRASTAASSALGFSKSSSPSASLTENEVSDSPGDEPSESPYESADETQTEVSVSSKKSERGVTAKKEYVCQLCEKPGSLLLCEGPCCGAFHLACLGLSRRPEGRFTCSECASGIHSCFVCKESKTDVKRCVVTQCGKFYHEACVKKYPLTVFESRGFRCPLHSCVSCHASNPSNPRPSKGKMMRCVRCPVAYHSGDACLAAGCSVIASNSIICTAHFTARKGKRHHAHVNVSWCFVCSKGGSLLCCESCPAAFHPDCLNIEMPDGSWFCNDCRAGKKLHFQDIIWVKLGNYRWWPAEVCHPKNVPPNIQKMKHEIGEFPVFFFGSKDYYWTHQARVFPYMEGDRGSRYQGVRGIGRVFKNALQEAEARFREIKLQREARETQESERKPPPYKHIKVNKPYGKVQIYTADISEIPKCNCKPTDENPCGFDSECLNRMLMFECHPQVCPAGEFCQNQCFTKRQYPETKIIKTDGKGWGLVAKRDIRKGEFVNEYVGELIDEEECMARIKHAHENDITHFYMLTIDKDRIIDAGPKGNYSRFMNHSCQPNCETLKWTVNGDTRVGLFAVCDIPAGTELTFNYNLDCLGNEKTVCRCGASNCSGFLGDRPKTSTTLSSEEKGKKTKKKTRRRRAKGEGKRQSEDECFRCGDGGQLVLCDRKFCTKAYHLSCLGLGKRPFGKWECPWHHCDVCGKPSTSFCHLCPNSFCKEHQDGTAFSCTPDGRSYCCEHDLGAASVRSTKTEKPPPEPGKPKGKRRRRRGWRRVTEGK

[3] = biological target: T3, Apoptotic protease-activating factor 1 (Homo sapiens, UniProt O14727); format: functional
T3 sequence (O14727 whole entry): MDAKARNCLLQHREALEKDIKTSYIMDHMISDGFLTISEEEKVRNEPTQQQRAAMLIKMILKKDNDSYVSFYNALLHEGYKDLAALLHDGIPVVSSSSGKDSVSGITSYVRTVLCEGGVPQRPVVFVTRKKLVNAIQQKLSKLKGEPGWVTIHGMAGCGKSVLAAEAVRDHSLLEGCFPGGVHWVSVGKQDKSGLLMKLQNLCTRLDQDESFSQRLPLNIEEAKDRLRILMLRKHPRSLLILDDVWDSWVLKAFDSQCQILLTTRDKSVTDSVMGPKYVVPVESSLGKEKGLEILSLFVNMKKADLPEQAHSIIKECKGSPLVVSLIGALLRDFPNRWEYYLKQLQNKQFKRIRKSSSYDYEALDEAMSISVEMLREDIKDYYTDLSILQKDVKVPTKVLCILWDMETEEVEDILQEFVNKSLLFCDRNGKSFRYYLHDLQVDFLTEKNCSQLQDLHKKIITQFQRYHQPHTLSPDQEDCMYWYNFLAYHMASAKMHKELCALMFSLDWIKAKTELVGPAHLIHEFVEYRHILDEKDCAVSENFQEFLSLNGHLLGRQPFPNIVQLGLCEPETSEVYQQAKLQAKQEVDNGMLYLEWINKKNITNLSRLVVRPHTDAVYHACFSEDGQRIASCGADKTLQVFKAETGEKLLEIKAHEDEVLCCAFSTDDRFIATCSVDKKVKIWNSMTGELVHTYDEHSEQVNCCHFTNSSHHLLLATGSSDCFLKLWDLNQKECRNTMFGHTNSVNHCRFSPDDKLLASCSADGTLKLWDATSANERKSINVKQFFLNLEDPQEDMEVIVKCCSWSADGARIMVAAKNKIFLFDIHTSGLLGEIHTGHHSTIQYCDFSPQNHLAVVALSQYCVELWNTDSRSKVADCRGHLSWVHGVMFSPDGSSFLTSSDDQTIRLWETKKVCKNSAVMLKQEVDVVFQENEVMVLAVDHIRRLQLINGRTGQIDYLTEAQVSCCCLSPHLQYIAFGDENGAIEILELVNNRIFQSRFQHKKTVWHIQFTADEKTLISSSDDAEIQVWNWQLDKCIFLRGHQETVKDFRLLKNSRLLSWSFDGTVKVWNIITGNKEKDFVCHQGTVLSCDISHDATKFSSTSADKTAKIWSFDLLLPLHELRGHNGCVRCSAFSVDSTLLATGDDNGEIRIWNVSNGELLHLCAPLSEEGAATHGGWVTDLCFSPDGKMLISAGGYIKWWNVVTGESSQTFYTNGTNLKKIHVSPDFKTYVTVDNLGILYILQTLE

[4] = biological target: Macrophage colony-stimulating factor 1 receptor (Homo sapiens, UniProt P07333); format: functional;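 also: value comes from the Navigating the Kinome screening panel, CSF1R member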
[5] = biological target: BDNF/NT-3 growth factors receptor (Homo sapiens, UniProt Q16620); format: functional;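 also: NTRK2 measured as one member of a broad kinome-wide kinase profiling panel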
Sequence of BDNF/NT-3 growth factors receptor (Q16620 whole entry): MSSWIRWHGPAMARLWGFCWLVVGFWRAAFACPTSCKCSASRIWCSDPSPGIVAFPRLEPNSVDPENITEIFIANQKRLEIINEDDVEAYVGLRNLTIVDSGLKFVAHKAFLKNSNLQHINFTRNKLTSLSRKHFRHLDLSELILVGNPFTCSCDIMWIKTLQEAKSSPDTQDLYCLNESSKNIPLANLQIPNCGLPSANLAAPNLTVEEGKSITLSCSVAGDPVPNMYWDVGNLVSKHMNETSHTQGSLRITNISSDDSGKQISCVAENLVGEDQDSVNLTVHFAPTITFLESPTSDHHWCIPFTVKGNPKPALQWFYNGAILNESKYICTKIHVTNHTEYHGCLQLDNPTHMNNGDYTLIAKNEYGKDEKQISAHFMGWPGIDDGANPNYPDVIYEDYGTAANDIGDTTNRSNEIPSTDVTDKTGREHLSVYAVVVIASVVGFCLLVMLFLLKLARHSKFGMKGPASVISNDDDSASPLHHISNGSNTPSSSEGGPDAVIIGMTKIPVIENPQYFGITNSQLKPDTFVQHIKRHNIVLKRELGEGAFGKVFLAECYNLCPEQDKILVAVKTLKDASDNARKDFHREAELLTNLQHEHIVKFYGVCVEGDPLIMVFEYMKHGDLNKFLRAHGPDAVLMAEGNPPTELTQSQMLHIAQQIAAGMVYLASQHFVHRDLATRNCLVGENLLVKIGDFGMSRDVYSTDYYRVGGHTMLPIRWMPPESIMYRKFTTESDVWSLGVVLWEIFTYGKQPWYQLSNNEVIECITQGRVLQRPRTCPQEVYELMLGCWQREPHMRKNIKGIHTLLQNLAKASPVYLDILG

Sequence of Macrophage colony-stimulating factor 1 receptor (P07333 whole entry): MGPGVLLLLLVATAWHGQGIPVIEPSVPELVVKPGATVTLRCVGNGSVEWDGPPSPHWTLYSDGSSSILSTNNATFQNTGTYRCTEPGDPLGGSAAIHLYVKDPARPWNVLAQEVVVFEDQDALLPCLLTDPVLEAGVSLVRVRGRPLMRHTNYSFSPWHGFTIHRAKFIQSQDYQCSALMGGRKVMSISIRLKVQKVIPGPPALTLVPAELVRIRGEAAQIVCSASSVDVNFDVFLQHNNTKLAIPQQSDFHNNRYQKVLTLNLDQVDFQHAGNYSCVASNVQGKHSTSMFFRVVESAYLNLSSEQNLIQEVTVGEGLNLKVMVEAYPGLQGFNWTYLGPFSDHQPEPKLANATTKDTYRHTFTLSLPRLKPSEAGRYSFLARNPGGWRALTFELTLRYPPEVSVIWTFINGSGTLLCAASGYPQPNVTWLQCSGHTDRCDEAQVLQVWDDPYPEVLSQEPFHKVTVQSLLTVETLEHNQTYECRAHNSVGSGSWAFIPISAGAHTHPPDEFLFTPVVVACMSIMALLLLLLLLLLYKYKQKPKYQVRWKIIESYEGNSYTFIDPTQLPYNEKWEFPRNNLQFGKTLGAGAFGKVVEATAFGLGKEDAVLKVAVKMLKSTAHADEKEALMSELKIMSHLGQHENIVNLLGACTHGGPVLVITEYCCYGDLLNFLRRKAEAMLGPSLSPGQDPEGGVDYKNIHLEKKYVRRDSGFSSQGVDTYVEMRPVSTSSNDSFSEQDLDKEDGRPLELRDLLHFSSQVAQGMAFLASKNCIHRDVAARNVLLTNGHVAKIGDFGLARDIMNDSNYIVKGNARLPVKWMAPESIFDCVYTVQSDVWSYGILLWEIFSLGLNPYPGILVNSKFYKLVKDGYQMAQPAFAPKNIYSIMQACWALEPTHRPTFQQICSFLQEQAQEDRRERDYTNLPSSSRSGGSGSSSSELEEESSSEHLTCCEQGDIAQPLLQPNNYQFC

Ki [4]	Ki [5]	Structure (SMILES)	IC50 [1]	AC50 [2]	IC50 [3]
–	–	CC(=O)N(C1=C(Cl)C(=O)c2ccccc2C1=O)c1ccc(C(=O)O)cc1	9.4 µM (active)	3.29 µM (active)	2.92 µM (active)
–	–	CC1(C)C=C2C(=NN(c3ccccc3)C(N)=C2C#N)CO1	1.27 µM (active)	5.67 µM (active)	1.38 µM (active)
> 2.51 µM (inactive)	> 3.98 µM (inactive)	Cc1ccc(-c2cc3nc(Br)cnc3[nH]2)cc1	–	–	–
